{
  "source": "patent US20190151289A1",
  "about": "“Identification of Small Molecule Inhibitors of Jumonji AT-Rich Interactive Domain 1A (JARID1A) Histone Demethylase” (YALE UNIVERSITY, priority 2016, published 2019)",
  "key": {"full-length FLAG-KDM5A": {"biological_target": "T1, full-length FLAG-KDM5A (Homo sapiens, UniProt P29375)", "T1 construct": "Sf21 insect cells were infected with baculovirus to express full-length FLAG-KDM5A; made in house; host or cells: Sf21 insect cells (baculovirus)", "T1 sequence (P29375 whole entry)": "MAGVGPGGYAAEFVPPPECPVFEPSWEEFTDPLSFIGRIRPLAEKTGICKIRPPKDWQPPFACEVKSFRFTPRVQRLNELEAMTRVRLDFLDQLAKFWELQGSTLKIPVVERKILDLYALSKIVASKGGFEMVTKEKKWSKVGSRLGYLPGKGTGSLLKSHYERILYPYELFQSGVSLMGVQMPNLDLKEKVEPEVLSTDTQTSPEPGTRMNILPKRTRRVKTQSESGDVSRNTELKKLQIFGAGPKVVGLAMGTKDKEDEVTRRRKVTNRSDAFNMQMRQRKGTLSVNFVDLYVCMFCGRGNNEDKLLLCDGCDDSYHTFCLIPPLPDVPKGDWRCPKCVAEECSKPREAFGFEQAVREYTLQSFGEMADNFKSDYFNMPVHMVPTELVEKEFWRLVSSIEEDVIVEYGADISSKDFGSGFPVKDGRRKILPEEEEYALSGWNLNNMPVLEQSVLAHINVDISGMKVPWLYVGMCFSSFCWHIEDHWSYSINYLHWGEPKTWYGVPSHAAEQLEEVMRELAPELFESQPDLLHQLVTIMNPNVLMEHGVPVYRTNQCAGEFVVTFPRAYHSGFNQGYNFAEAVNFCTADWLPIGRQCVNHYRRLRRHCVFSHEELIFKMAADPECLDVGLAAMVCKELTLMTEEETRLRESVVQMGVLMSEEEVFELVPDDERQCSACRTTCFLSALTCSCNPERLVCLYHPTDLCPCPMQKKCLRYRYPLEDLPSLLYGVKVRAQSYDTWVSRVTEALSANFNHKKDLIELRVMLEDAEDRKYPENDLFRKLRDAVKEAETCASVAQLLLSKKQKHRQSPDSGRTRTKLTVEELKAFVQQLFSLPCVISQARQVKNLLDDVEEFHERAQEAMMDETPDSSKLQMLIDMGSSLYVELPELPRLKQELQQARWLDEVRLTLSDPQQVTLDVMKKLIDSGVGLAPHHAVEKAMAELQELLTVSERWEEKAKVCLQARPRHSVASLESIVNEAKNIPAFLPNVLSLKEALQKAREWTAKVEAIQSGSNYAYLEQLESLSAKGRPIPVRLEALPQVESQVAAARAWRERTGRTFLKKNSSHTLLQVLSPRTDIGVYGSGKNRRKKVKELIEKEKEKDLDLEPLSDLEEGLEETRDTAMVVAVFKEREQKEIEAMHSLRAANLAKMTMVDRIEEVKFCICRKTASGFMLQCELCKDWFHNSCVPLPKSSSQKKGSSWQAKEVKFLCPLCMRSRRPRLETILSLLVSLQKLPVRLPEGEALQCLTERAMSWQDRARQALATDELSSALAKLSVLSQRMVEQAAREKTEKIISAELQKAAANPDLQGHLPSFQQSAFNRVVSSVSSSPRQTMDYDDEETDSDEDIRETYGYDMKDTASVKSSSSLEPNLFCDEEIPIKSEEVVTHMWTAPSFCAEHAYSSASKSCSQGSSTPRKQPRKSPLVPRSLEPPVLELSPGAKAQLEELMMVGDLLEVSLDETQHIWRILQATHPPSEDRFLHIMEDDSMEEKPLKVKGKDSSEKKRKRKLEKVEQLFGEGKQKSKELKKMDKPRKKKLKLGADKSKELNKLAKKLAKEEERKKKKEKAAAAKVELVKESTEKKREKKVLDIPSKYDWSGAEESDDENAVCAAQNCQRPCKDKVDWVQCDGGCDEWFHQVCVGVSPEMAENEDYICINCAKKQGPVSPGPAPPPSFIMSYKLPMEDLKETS", "assay": "AlphaScreen KDM5A demethylation assay (bio-H3K4me3 peptide)", "type": "biochemical", "procedure": "Histone demethylase assays were performed using previously described methods (Sayegh et al., 2013, J. Biol. Chem. 9408-9417), with the exception of all enzyme reactions containing 125 μM α-KG. Enzymes were used at the following approximate concentrations in validation experiments, chosen based on their activity in AlphaScreen assays: 19 nM FLAG-KDM5A, 15 nM FLAG-KDM5B, 6 nM FLAG-KDM5C, 29 nM His-FLAG-KDM6A, and 16 nM FLAG-KDM6B. 24 nM FLAG-KDM5A was used for Km determination experiments. Reactions were carried out for 1 hour, or were stopped by addition of 30 mM EDTA every 5 minutes for determining enzyme kinetics. Km values were calculated using the Michaelis-Menten non-linear regression analysis on GraphPad Prism 6.0 software. The concentration of DMSO in demethylation reactions was 0.05%. For reactions with catalase, catalase (Sigma C30) or an equal volume of dilution buffer was added to the peptide-containing buffer before addition of the demethylase. The final concentration of catalase in the reactions was 0.01 mg/ml.\nThe AlphaScreen general IgG (protein A) detection kit from PerkinElmer Life Sciences was used as described previously (Sayegh et al., 2013, J. Biol. Chem. 9408-9417). The luminescence emission was recorded at 570 nm using the AlphaScreen optic module on a Pherastar (BMG Labtech) or Envision (PerkinElmer Life Sciences) microplate reader.\n8,861 compounds from the ChemBridge MW-Set, ChemBridge DIVERSet, MicroSource Gen-Plus, MicroSource Pure Natural Products, NIH Clinical Collection, and Enzo Epigenetics libraries were screened for inhibition of FLAG-KDM5A demethylase activity. Compounds were dissolved in DMSO and added at 20 μM to 384-well white plates (Corning 3574) containing 64 nM bio-H3K4me3 peptide in demethylase buffer prior to addition of 13 nM FLAG-KDM5A. Hits were selected at a threshold of three standard deviations (˜30% inhibition). A counter-screen was performed with the hits to eliminate any non-specific compounds. For this, 20 μM compounds were added to 64 nM bio-H3K4me2 peptide in demethylase buffer with no enzyme. Any hits that interfered with the positive signal detection were eliminated. Dose-response curves were performed on selected hits using 0.1-11 μM of compound. Further validation of top hits was performed using 5 μM of each compound or a dose-response curve using 0.05-50 μM of the compound.\nFresh compounds were ordered to confirm identity. IC50 curves were generated for YUKA1 and YUKA2 using 0.05-50 μM compound in 1 hour reactions. IC50 values were calculated by log transformation and non-linear regression log (inhibitor) versus response (three parameters) using Graphpad Prism 6.0 software. Percent activity of KDM5A was calculated for each data point by subtracting the background (average H3K4me3 signal) and dividing by the average signal for the DMSO controls. α-KG competition tests were performed using 150 nM H3K4me3 peptide and 50 μM Fe(II).\nAlphaScreen technology (Perkin Elmer) was utilized to perform a screen for small molecule inhibitors of KDM5A. The assay was comprised of two steps, a demethylation reaction followed by detection of the product. A biotinylated H3K4me3 peptide was used as substrate in the demethylation reaction with KDM5A in the presence or absence of small molecule inhibitors. The presence of peptide product (H3K4me1/2) was detected using a product-specific antibody and beads. For this, acceptor beads coated in protein A bound to the antibody, which recognized the peptide product. Donor beads coated in streptavidin bound biotin on the peptide substrate. […]"}, "HeLa cells": {"test_system": "HeLa cells", "assay": "Colony formation assay, HeLa", "type": "cell-based, human", "procedure": "Cells were seeded in 6-well plates at low density: HeLa, MCF7, BT474, and PC9 cells at 1000, 2000, 2500, and 2000 cells/well respectively. Media containing the prescribed drugs or 0.1% DMSO was replaced every 3 days. Trastuzumab was used at 5 μg/ml. Gefitinib was used at 2 μM. YUKA1 was used at 50 or 100 μM. Doxycycline was used at 1 μg/ml for 3 days. After 7-42 days depending on the rate of cell growth, cells were fixed in 4% para-formaldehyde in phosphate-buffered saline for 10 minutes rocking at room temperature. They were incubated in 0.05% crystal violet in double-distilled water for 30 minutes rocking at room temperature, washed with water, and dried 24 hours before photographing. ColonyArea, a plugin for ImageJ software, was used for quantification (Guzman et al., 2014, PloS One 9:e92444). Unpaired, two-tailed student's t-test was used to determine significance using GraphPad Prism 6.0 software.\nHeLa (FIG. 11A) and MDA-MB231 cells (FIG. 11B) were treated with DMSO, 5 μM KDMS-C70 or 50 or 100 μM YUKA1 in colony-formation assays. The tables in FIGS. 11C and 11D depict the quantification of experimental data."}},
  "note": "pIC50: −log10 of the molar value. Read-outs that look alike come from different tables or passages of the source.",
  "data": [
    {"smiles": "C=CCOc1c(CNn2cnnc2S)cccc1OC", "note": "[YUKA1, 4-([2-(allyloxy)-3-methoxybenzyl]amino)-4H-1,2,4-triazole-3-thiol]", "values": [
      {"measurement": "mode of KDM5A inhibition with respect to Fe(II)", "setting": "full-length FLAG-KDM5A", "value": "uncompetitive with respect to Fe(II)"},
      {"measurement": "KDM5A enzyme inhibition at low Fe(II)", "setting": "full-length FLAG-KDM5A; 5 μM Fe(II)", "value": "too weak to generate robust IC50 curves"},
      {"measurement": "effect of catalase on inhibitory potency against KDM5A", "setting": "full-length FLAG-KDM5A; 0.01 mg/ml catalase", "value": "did not affect the inhibitory potency"},
      {"measurement": "pIC50", "setting": "full-length FLAG-KDM5A; 0.05-50 μM compound, 1 hour reactions, read-out: average in vitro IC50 against KDM5A", "value": 5.58},
      {"measurement": "change of KDM5A IC50 with α-KG concentration", "setting": "full-length FLAG-KDM5A; 16-fold range of α-KG, 150 nM H3K4me3 peptide, 50 μM Fe(II)", "value": "did not change significantly"},
      {"measurement": "pIC50", "setting": "full-length FLAG-KDM5A; inhibitors found by high throughput screening, read-out: KDM5A IC50", "value": 5.88},
      {"measurement": "growth in colony-formation assay", "setting": "HeLa cells; 5 μM KDMS-C70 or 50 or 100 μM YUKA1", "value": "suppresses growth"},
      {"measurement": "number of colonies formed vs DMSO control", "setting": "HeLa cells; two-week treatment", "value": "significantly reduced"}
    ]}
  ]
}
